The numbers were not newly measured in Sander's compilation of Henry's law constants (doi:10.1016/j.chroma.2007.11.025), which cites them from elsewhere.

A short description of this data set: Henry solubility constant Hcp at 298.15 K (mol/(m3 Pa)). The conditions noted are these: reference: Sieg et al. (2008); cited value.
As for `Cc1ccccc1C` [1,2-dimethylbenzene], the “Henry solubility constant Hcp” value is 0.0019.

For the compound `Cc1cccc(C)c1` [1,3-dimethylbenzene], the “Henry solubility constant Hcp” value is 0.0014.

Consider `Cc1ccc(C)cc1` [1,4-dimethylbenzene], for which the “Henry solubility constant Hcp” value was 0.0014.

In the case of `ClCCBr` [1-chloro-2-bromoethane], the “Henry solubility constant Hcp” value was 0.011.

With `c1ccccc1` [benzene], the “Henry solubility constant Hcp” value is 0.0018.

On to `CCCCCCCCCC=O` [decanal], for which the “Henry solubility constant Hcp” value is 0.0055.

In the case of `CCc1ccccc1` [ethylbenzene], the “Henry solubility constant Hcp” value was 0.0013.

Consider `Fc1ccccc1` [fluorobenzene], for which the “Henry solubility constant Hcp” value was 0.0016.

With `CCCCCCC=O` [heptanal], the “Henry solubility constant Hcp” value is 0.037.

For `Cc1ccccc1` [methylbenzene], the “Henry solubility constant Hcp” value is 0.0015.

On to `CCCCCCCCC=O` [nonanal], for which the “Henry solubility constant Hcp” value was 0.014.

As to `CCCCCCCC=O` [octanal], the “Henry solubility constant Hcp” value is 0.019.
